Assay results from patent US10588865B2, “Tamper resistant oral opioid agonist formulations” (Purdue Pharma L.P., priority 2000, dated 2020).
Counter-ions that a name gives are not always drawn.

Experiments:
[1] = after oral doses; cited from earlier work
[2] = test system: methadone-dependent subjects; conditions: immediate-release naltrexone, interim analysis
normal subjects = test: Example 19: effect of naltrexone on subjective and physiological effects of 15 mg hydrocodone; format: in vivo
[3] = test system: morphine-dependent subjects; test: Example 17: precipitated withdrawal after hydrocodone immediate release tablets with naltrexone
[4] = in comparison to a 15 mg dose of hydrocodone
Description: In certain preferred embodiments, the opioid agonist is oxycodone or hydrocodone.

man = conditions: cited from earlier work
[5] = cited from earlier work
[6] = suggested by clinical data of examples 17, 18 and 19

C[C@H]1[C@H]2Cc3ccc(O)cc3[C@]1(C)CCN2CC1CC1 [cyclazocine]
duration of action [1]: ~24 h

O=C1CC[C@@]2(O)[C@H]3Cc4ccc(O)c5c4[C@@]2(CCN3CC2CC2)[C@H]1O5 [naltrexone]
dose able to elicit the signs and symptoms of withdrawal [2]: 0.5 mg
dose able to antagonize several centrally mediated opioid effects of hydrocodone, including pupillary miosis (normal subjects; 15 mg hydrocodone): 0.4 mg
bio-available, immediate-release dose that will not affect analgesia to any significant degree (normal subjects; [6]): 0.125 mg
prompt release of bio-available drug that will affect analgesia (normal subjects; [6]): ≥ 0.25 mg
liking of the agonist ([3]; 1 mg naltrexone dose with hydrocodone immediate release tablets, opioid-dependent subjects): less liking of the agonist relative to the combination with placebo
withdrawal signs ([3]; subjects in example 17 receiving the 0.25-mg): absence of withdrawal signs

CN1CC[C@]23CCCC[C@H]2[C@H]1Cc1ccc(O)cc13 [Levorphanol]
Calculated Dose (equianalgesic dose) [4]: 1.8 mg

CCC(=O)C(CC(C)N(C)C)(c1ccccc1)c1ccccc1 (stereo not drawn) [Methadone]
Calculated Dose (equianalgesic dose) [4]: 9.0 mg

COc1ccc2c3c1O[C@H]1C(=O)CC[C@@]4(O)[C@@H](C2)N(C)CC[C@]314 [Oxycodone, 4,5-expoxy-14-hydroxy-3-methoxy-17-methylmorphinan-6-one]
Calculated Dose (equianalgesic dose) [4]: 13.5 mg

C=CCN1CC[C@]23c4c5ccc(O)c4O[C@H]2C(=O)CC[C@@]3(O)[C@H]1C5 [naloxone]
block of the effect of 25 mg of heroin (man; One mg intravenously): completely block
dose that prevents or promptly reverses the effects of morphine-like opioid agonist (man; given intramuscularly or intravenously in man): 0.4 to 0.8 mg
potency after oral administration compared with parenteral administration (man; oral, first passage through the liver): significantly lower potency

COc1ccc2c3c1OC1C(=O)CC[C@H]4[C@@H](C2)N(C)CC[C@]314 (stereo partly drawn) [Hydrocodone, 4,5-epoxy-3-methoxy-17-methylmorphinan-6-one]
Calculated Dose (equianalgesic dose) [4]: 15.0 mg

Meperidine
Calculated Dose (equianalgesic dose) [4]: 135.0 mg

COc1ccc2c3c1O[C@H]1[C@@H](O)C=C[C@H]4[C@@H](C2)N(C)CC[C@@]341 [Codeine]
Calculated Dose (equianalgesic dose) [4]: 90.0 mg

O=C1CC[C@@]2(O)[C@H]3Cc4ccc(O)c5c4[C@@]2(CCN3CC2CC2)[C@H]1O5 [hydrochloride salt of naltrexone, Naltrexone HCl]
water solubility [5]: very water-soluble
solubility in water ([5]; hydrochloride salt): about 100 mg/cc
